Test results published in patent publication US20090030024A1, “THIAZOLES AS FUNGICIDES” (priority 2005, published 2009).

Assay: logP determination by retention times (calibration with alkan-2-ones)
[1] = logP, values marked *: HPLC on reversed-phase C 18, 40° C., mobile phase 0.1% aqueous formic acid and acetonitrile, linear gradient 10% to 95% acetonitrile
[2] = values marked *: HPLC on reversed-phase C 18, 40° C., mobile phase 0.1% aqueous formic acid and acetonitrile, linear gradient 10% to 95% acetonitrile

Compound | chromatographic logP [1] | also measured
COCCCNc1nc(C)c(-c2ccnc(Nc3ccc(F)cc3)n2)s1 [Example 851, N-(4-fluorophenyl)-4-{2-[(3-methoxypropyl)amino]-4-methyl-1,3-thiazol-5-yl}pyrimidine-2-amine] | 1.92 | 
COCCCNc1nc(C)c(-c2ccnc(Nc3cccc(OC)c3)n2)s1 [Example 852, N-(3-methoxyphenyl)-4-{2-[(3-methoxypropyl)amino]-4-methyl-1,3-thiazol-5-yl}pyrimidine-2-amine] | 1.89 | 
COCCCNc1nc(C)c(-c2ccnc(Nc3cccc(NC(C)=O)c3)n2)s1 [Example 853, N-{3-[(4-{2-[(3-methoxypropyl)amino]-4-methyl-1,3-thiazol-5-yl}pyrimidin-2-yl)amino]phenyl}acetamide] | 1.44 | 
COCCCNc1nc(C)c(-c2ccnc(Nc3ccc(NC(C)=O)cc3)n2)s1 [Example 854, N-{4-[(4-{2-[(3-methoxypropyl)amino]-4-methyl-1,3-thiazol-5-yl}pyrimidin-2-yl)amino]phenyl}acetamide] | 1.4 | 
COCCCNc1nc(C)c(-c2ccnc(Nc3ccc(C(C)=O)cc3)n2)s1 [Example 855, 1-{4-[(4-{2-[(3-methoxypropyl)amino]-4-methyl-1,3-thiazol-5-yl}pyrimidin-2-yl)amino]phenyl}ethanone] | 1.81 | 
COCCCNc1nc(C)c(-c2ccnc(Nc3ccc(N4CCCC4=O)cc3)n2)s1 [Example 856, 1-{4-[(4-{2-[(3-methoxypropyl)amino]-4-methyl-1,3-thiazol-5-yl}pyrimidin-2-yl)amino]phenyl}pyrrolidin-2-one] | 1.57 | 
COCCCNc1nc(C)c(-c2ccnc(Nc3ccc(F)c(C)c3)n2)s1 [Example 857, N-(4-fluoro-3-methylphenyl)-4-{2-[(3-methoxypropyl)amino]-4-methyl-1,3-thiazol-5-yl}pyrimidine-2-amine] | 2.11 | 
COCCCNc1nc(C)c(-c2ccnc(Nc3ccc(OC)nc3)n2)s1 [Example 858, 4-{2-[(3-methoxypropyl)amino]-4-methyl-1,3-thiazol-5-yl}-N-(6-methoxypyridin-3-yl)pyrimidine-2-amine] | 1.57 | 
CN(C)c1nc(C(F)(F)F)c(-c2ccnc(Nc3cccc([N+](=O)[O-])c3)n2)s1 [Example 859, 4-[2-(dimethylamine)-4-(trifluoromethyl)-1,3-thiazol-5-yl]-N-(3-nitrophenyl)pyrimidine-2-amine] |  | logP [2]: 3.99*
CC(=O)Nc1cccc(Nc2nccc(-c3sc(N(C)C)nc3C(F)(F)F)n2)c1 [Example 860, N-[3-({4-[2-(dimethylamine)-4-(trifluoromethyl)-1,3-thiazol-5-yl]pyrimidin-2-yl}amino)phenyl]acetamide] |  | logP [2]: 2.65*
COCCCNc1nc(C)c(-c2ccnc(Nc3cccc(N4CCCC4=O)c3)n2)s1 [Example 861, 1-{3-[(4-{2-[(3-methoxypropyl)amino]-4-methyl-1,3-thiazol-5-yl}pyrimidin-2-yl)amino]phenyl}pyrrolidin-2-one] | 1.62 | 
CC(=O)Nc1ccc(Nc2nccc(-c3sc(N(C)C)nc3C)n2)cc1 [Example 862, N-[4-({4-[2-(dimethylamine)-4-methyl-1,3-thiazol-5-yl]pyrimidin-2-yl}amino)phenyl]acetamide] |  | logP [2]: 1.33*
CCc1nc(C)c(-c2ccnc(Nc3ccc(F)c(OC)c3)n2)s1 [Example 863, 4-(2-ethyl-4-methyl-1,3-thiazol-5-yl)-N-(4-fluoro-3-methoxyphenyl)pyrimidine-2-amine] | 2.99 | 
COCC(C)Nc1nc(C)c(-c2ccnc(Nc3ccc(S(N)(=O)=O)cc3)n2)s1 (stereo not drawn) [Example 864, 4-[(4-{2-[(2-methoxy-1-methylethyl)amino]-4-methyl-1,3-thiazol-5-yl}pyrimidin-2-yl)amino]benzenesulphonamide] | 1.49 | 
COCCCNc1nc(C)c(-c2ccnc(Nc3cccc([N+](=O)[O-])c3)n2)s1 [Example 865, 4-{2-[(3-methoxypropyl)amino]-4-methyl-1,3-thiazol-5-yl}-N-(3-nitrophenyl)pyrimidine-2-amine] | 2.03 | 
COCCCNc1nc(C)c(-c2ccnc(Nc3cc(OC)c(OC)c(OC)c3)n2)s1 [Example 866, 4-{2-[(3-methoxypropyl)amino]-4-methyl-1,3-thiazol-5-yl}-N-(3,4,5-trimethoxyphenyl)pyrimidine-2-amine] | 1.73 | 
CC(=O)c1ccc(Nc2nccc(-c3sc(N(C)C)nc3C)n2)cc1 [Example 867, 1-[4-({4-[2-(dimethylamine)-4-methyl-1,3-thiazol-5-yl]pyrimidin-2-yl}amino)phenyl]ethanone] |  | logP [2]: 1.9*
COCCNc1nc(C)c(-c2ccnc(Nc3ccc(Cl)nc3)n2)s1 [Example 872, N-(6-chloropyridin-3-yl)-4-{2-[(2-methoxyethyl)amino]-4-methyl-1,3-thiazol-5-yl}pyrimidine-2-amine] | 1.71 | 
Cc1nc(C)c(-c2nc(Nc3ccccc3)ncc2Cl)s1 [Example 873, 5-chloro-4-(2,4-dimethyl-1,3-thiazol-5-yl)-N-phenylpyrimidine-2-amine] | 3.26 | 

Compound | chromatographic logP [1] | also measured
COc1cc(Nc2ncc(Cl)c(-c3sc(C)nc3C)n2)cc(OC)c1OC [Example 874, 5-Chloro-4-(2,4-dimethyl-1,3-thiazol-5-yl)-N-(3,4,5-trimethoxyphenyl)-pyrimidine-2-amine] | 2.82 | chromatographic logP (logP(HCOOH), HCOOH): 2.82
Cc1nc(C)c(-c2nc(Nc3cccc(Cl)c3)ncc2Cl)s1 [Example 875, 5-chloro-N-(3-chlorophenyl)-4-(2,4-dimethyl-1,3-thiazol-5-yl)pyrimidine-2-amine] | 3.86 | 
CCc1nc(C)c(-c2nc(Nc3ccccc3)ncc2Cl)s1 [Example 876, 5-chloro-4-(2-ethyl-4-methyl-1,3-thiazol-5-yl)-N-phenylpyrimidine-2-amine] | 3.78 | 
CCc1nc(C)c(-c2nc(Nc3ccc(Cl)cc3)ncc2Cl)s1 [Example 877, 5-chloro-N-(4-chlorophenyl)-4-(2-ethyl-4-methyl-1,3-thiazol-5-yl)pyrimidine-2-amine] | 4.48 | 
CCc1nc(C)c(-c2nc(Nc3ccccc3Cl)ncc2Cl)s1 [Example 878, 5-chloro-N-(2-chlorophenyl)-4-(2-ethyl-4-methyl-1,3-thiazol-5-yl)pyrimidine-2-amine] | 4.62 | 
CCc1nc(C)c(-c2ccnc(Nc3ccc(N(C)C)cc3)n2)s1 [Example 879, N′-[4-(2-ethyl-4-methyl-1,3-thiazol-5-yl)pyrimidin-2-yl]-N,N-dimethylbenzene-1,4-diamine] | 1.56 | 
CCc1nc(C)c(-c2ccnc(Nc3cccc(N(C)C)c3)n2)s1 [Example 880, N′-[4-(2-ethyl-4-methyl-1,3-thiazol-5-yl)pyrimidin-2-yl]-N,N-dimethylbenzene-1,3-diamine] | 1.99 | 
CCc1nc(C)c(-c2ccnc(Nc3ccc(C(=O)OCCOC)cc3)n2)s1 [Example 881, 2-methoxyethyl-4-{[4-(2-ethyl-4-methyl-1,3-thiazol-5-yl)pyrimidin-2-yl]amino}benzoate] | 2.91 | 
Cc1nc(C(C)(C)C)sc1-c1ccnc(Nc2ccccc2)n1 [Example 882, 4-(2-tert-butyl-4-methyl-1,3-thiazol-5-yl)-N-phenylpyrimidine-2-amine] | 4.24 | 
Cc1nc(C(C)(C)C)sc1-c1ccnc(Nc2ccc(F)cc2)n1 [Example 883, 4-(2-tert-butyl-4-methyl-1,3-thiazol-5-yl)-N-(4-fluorophenyl)pyrimidine-2-amine] | 4.18 | 
Cc1nc(C(C)(C)C)sc1-c1ccnc(Nc2cccc(Cl)c2)n1 [Example 884, 4-(2-tert-butyl-4-methyl-1,3-thiazol-5-yl)-N-(3-chlorophenyl)pyrimidine-2-amine] | 4.82 | 
CC(=O)c1ccc(Nc2nccc(-c3sc(C(C)(C)C)nc3C)n2)cc1 [Example 885, 1-(4-{[4-(2-tert-butyl-4-methyl-1,3-thiazol-5-yl)pyrimidin-2-yl]amino}phenyl)ethanone] | 4.22 | 
COc1ccc(Nc2nccc(-c3sc(C(C)(C)C)nc3C)n2)cn1 [Example 886, 4-(2-tert-butyl-4-methyl-1,3-thiazol-5-yl)-N-(6-methoxypyridin-3-yl)pyrimidine-2-amine] | 3.42 | 
CC(=O)c1cccc(Nc2nccc(-c3sc(C(C)(C)C)nc3C)n2)c1 [Example 887, 1-(3-{[4-(2-tert-butyl-4-methyl-1,3-thiazol-5-yl)pyrimidin-2-yl]amino}phenyl)ethanone] | 3.66 | 
COc1cc(Nc2nccc(-c3sc(C(C)(C)C)nc3C)n2)cc(OC)c1OC [Example 888, 4-(2-tert-butyl-4-methyl-1,3-thiazol-5-yl)-N-(3,4,5-trimethoxyphenyl)pyrimidine-2-amine] | 3.48 | 
COCC(C)Nc1nc(C)c(-c2ccnc(Nc3ccc4c(c3)C(=O)OC4)n2)s1 (stereo not drawn) [Example 889, 6-[(4-{2-[(2-methoxy-1-methylethyl)amino]-4-methyl-1,3-thiazol-5-yl}pyrimidin-2-yl)amino]-2-benzofuran-1(3H)-one] | 1.65 | 
COCCNc1nc(C)c(-c2ccnc(Nc3ccc4c(c3)C(=O)OC4)n2)s1 [Example 890, 6-[(4-{2-[(2-methoxyethyl)amino]4-methyl-1,3-thiazol-5-yl}pyrimidin-2-yl)amino]-2-benzofuran-1(3H)-one] | 1.53 | 
Cc1nc(NCCO)sc1-c1ccnc(Nc2ccc(F)cc2)n1 [Example 891, 2-[(5-{2-[(4-fluorophenyl)amino]pyrimidin-4-yl}-4-methyl-1,3-thiazol-2-yl)amino]ethanol] | 1.5 | 
COCCNc1nc(C)c(-c2ccnc(Nc3ccc(C)c(C)c3)n2)s1 [Example 896, N-(3,4-dimethylphenyl)-4-{2-[(2-methoxyethyl)amino]-4-methyl-1,3-thiazol-5-yl}pyrimidine-2-amine] | 2.08 | 
